{
  "source": "patent US9663529B2",
  "about": "“Tricyclic pyrido-carboxamide derivatives as rock inhibitors” (BRISTOL-MYERS SQUIBB COMPANY, priority 2013, dated 2017)",
  "origin": "cited, not measured here",
  "key": {"[1]": {"tested_on": "rat models of hypertension", "details": "cited from earlier work"}, "neointimal formation": {"tested_on": "neointimal formation", "details": "rats, balloon injury model; cited from earlier work"}, "[2]": {"tested_on": "congestive heart failure in Dahl salt-sensitive rats", "details": "rat, in vivo; cited from earlier work"}},
  "data": [
    {"smiles": "C[C@@H](N)[C@H]1CC[C@H](C(=O)Nc2ccncc2)CC1", "note": "[Example Y-27632, Y-27632]", "values": [
      {"measurement": "blood pressure in control rats", "setting": "[1]; control rats", "result": "only a minor effect on blood pressure"},
      {"measurement": "blood pressure", "setting": "[1]; spontaneously hypertensive rat, renal hypertensive rat and deoxycortisone acetate salt hypertensive rat models", "result": "significantly decrease blood pressure"},
      {"measurement": "neointimal formation", "setting": "neointimal formation", "result": "inhibited neointimal formation"},
      {"measurement": "ventricular hypertrophy, fibrosis and function", "setting": "[2]", "result": "improve ventricular hypertrophy, fibrosis and function"}
    ]}
  ]
}
